3 compounds from patent publication US6642215B2 (Leo Pharma A/S, priority 2001, dated 2003) can be followed below.

Where two headings read alike, the source gives them in different places.

One test concerns the target T1, IKK (Homo sapiens, UniProt O14920).
T1 construct: IKK was immunoprecipitated with an IKKα/β antibody; endogenous in cells; host or cells: THP-1 cells stimulated with 1 μg/ml LPS; whole cell extract immunoprecipitated with an IKKα/β antibody (Santa Cruz)
The test can be described thus: In vitro kinase assay: IKK immunoprecipitated from LPS-stimulated THP-1 cells, GST-IκBα phosphorylation. The settings on record: GST-IκB phosphorylated by activated IKK pretreated with the compound. The format is biochemical. The method, then: In vitro kinase assay: THP-1 cells (1×10^7 cells) were stimulated with 1 μg/ml LPS for the indicated time periods and whole cell extracts were prepared as described above. IKK was immunoprecipitated with an IKKα/β antibody (raised against amino acid 470-755 of IKKβ of human origin but partially cross-reactive with IKKα as detected by Western Blotting (Santa Cruz Biotechnology Inc.). Compound A was diluted in kinase buffer (25 mM HEPES pH 7.5, 10 mM magnesium acetate, 50 μM ATP) at the appropriate concentrations. The compound was added to the beads for 30 min. at 30° C. The kinase reaction was started by adding 2.5 μg of the GST-IκBα substrate (Santa Cruz Biotechnology Inc.) together with 2 μCi γ-^32P-ATP (Amersham Pharmacia Biotech) per sample. The reaction was allowed to proceed for 30 min. at 30° C., and the IKK activity was measured by the amount of radioactive-labelled GST-IκBα bands, quantified by the STORM860 Phospho-Imager.
A general problem with the kinase assay is prestimulation of the kinase. To achieve a value for the zero-point, the LPS-activated IKK mixture was incubated with 20 μM myricetin (Sigma-Aldrich), which is a known IKKβ inhibitor (S. H. Tsal et al., J. Cell Biochem. 74, 1999, pp. 606-615). This value was subtracted from the all other values. All data are expressed as percentage of the activity of the LPS-activated IKKβ kinase treated with 0.1% DMSO.

The subject of a further test is NYH SCLC cells. The test can be described thus: DNA synthesis (tritiated thymidine incorporation) in NYH SCLC cells. The note with it: incorporation of tritiated thymidine in NYH SCLC cells; read-out: NYH proliferation in vitro (IC50 nM). The class given is cell-based. The method, then: DNA synthesis: NYH SCLC, HT-1080, Colo-320, PC-3 and H460 cells (7.5×10^3 cells/ml) were seeded in tissue culture vessels and the test compound were added 2 h after plating. Following an incubation for 144 h tritiated thymidine (5 CI/mmol, Amersham Pharmacia Biotech) was added to the culture at the concentration of 1 μCi/ml, and the cells were incubated for additional 4 h. The incorporated thymidine was measured with a β-counter. Each compound concentration was tested in triplicate.
(Incorporation of labelled thymidine or its analogues reports DNA synthesis.)

The test system of another test is NYH Xenografts. As to the kind of experiment: NYH xenografts in nude mice, tumour growth. The settings on record: nude mice with NYH SCLC tumours, 14 days of treatment with 20 mg/kg. The format is in vivo, NMRI nu/nu mice. The method, then:
All of the animal experiments were conducted according to the guidelines and ethical standards of the Danish Committee for Animal Experiments. Female NMRI nu/nu mice 6 weeks of age were purchased from M&B (Ry, Denmark). The mice were allowed an acclimatisation period of 1-3 weeks before start of the experiments. The nude mice were housed in Scantainers under semi-sterile conditions and all handling of mice was performed in a laminar flow bench.
NYH Xenografts. NMRI nu/nu mice were injected with 1×10^7 cells in 0.2 ml media s.c. in both flanks and tumour growth was measured twice weekly. The tumour area was used as expression of the tumour size and was calculated from two perpendicular diameters measured with a digital caliper. Compound A was given for fourteen consecutive days by oral gavage from day 4-6 when the tumour size was 24-30 mm^2. Each treatment group consisted of 10 mice.
Statistical Methods In the animal models, tumour sizes were expressed by the mean of the trends in each treatment group. The trend is the linear increment or tumour size, where tumour size is the square root of the (mean) area of the tumour(s). Comparison with controls was expressed as T/C % and calculated as follows:
A=(overall mean tumour size at baseline+mean trend of treatment*intended days of treatment)
B=(overall mean tumour size at baseline+mean trend of control*intended days of treatment)
Overall mean tumour size at baseline=pooling all treatments this is the mean of all baseline values. For each mouse the baseline value is calculated as the square root of the (mean) area of the tumour(s).
Significance was tested with the Bonferroni correction. This correction is a method for adjusting (lowering) the significance level so the overall finding of one significant difference due to chance is around 5 percent.

Test [1] deals with NF-κB. The test can be described thus: NF-κB-dependent luciferase assay in HT-1080 cells, TNF-α stimulation. The class given is cell-based, human. The note with it: TNF-α 50 ng/ml, up to 24 h. The method, then:
(§1) The NF-κB-luciferase reporter plasmid (pBIIX) and pRL-TK control vector described in Example 1 were used for the luciferase assay,
The HT-1080 cells were seeded at a density of 3×10^4 cells/cm^2 in 6 well-plates. The following day, the cells were co-transfected with construct DNA and pRL-TK vector using FuGene Transfection Reagent. A mixture of 10 μl Fugene and 90 μl serum free medium (per well) was prepared and Incubated for 5 min at room temperature. Then, this mixture was transferred to a mixture of construct DNA (1.25 μg per well) and pRL-TK vector (0.25 μg per well), gently mixed, incubated for 15 min at room temperature and added to the cells. The cells were treated at 37° C. with compound A (10^−12−10^−5 M) or DMSO for 24 h before stimulation with TNF-α (50 ng/ml) for 6 h.
(§2) The cell lysate was assayed for luciferase activity using the Dual luciferase kit as described by the manufacturer (Promega). All transfections were performed in triplicate. Firefly luciferase activity was corrected for differences in transfection efficiency by normalizing it to the measured Renilla luciferase activity.
(§3) NF-κB activity was measured by the luciferase assay described in Example 1.

Test [2] deals with NF-κB. The test can be described thus: NF-κB-dependent luciferase assay in Colo-320 cells, TNF-α stimulation. The format is cell-based, human. The note with it: TNF-α 50 ng/ml, up to 24 h. The method, then: as §1
The Colo-320 cells were seeded with a density of 5×10^4 cells/cm^2 in 6-well plates (NUNC). The following day, the cells were co-transfected with construct DNA and pRL-TK using FuGene Transfection Reagent (Boehringer Mannheim). A mixture of 5 μl Fugene and 95 μl serum free medium (per well) was prepared and incubated for 5 min at room temperature. Then, the mixture was transferred to a mixture of construct DNA (2.5 μg per well) and pRL-TK vector (0.25 μg per well), gently mixed, incubated for 15 min at room temperature and added to the cells. The cells were treated at 37° C. with compound A (10^−12−10^−5 M) or DMSO for 24 h before stimulation with TNF-α (50 ng/ml) for 6 h.
as §2, §3

Test [3] has as its system NF-κB. As to the kind of experiment: NF-κB-dependent luciferase assay in PC-3 cells, TNF-α stimulation. The class given is cell-based, human. The note with it: TNF-α 50 ng/ml, up to 24 h. The method, then: as §1
The PC-3 cells were seeded at a density of 3×10^4 cells/cm^2 in 6 well-plates. The following day, the cells were co-transfected with construct DNA and pRL-TK vector using DOTAP liposomal transfection reagent (Boehringer Mannheim). The construct DNA (4.0 μg per well), the pRL-TK vector (1.0 μg per well), DOTAP (16.7 μl per well) and dH2O (total volume 100 μl per well) were carefully mixed and incubated for 15 min at 37° C. A growth medium without serum (900 μl per well) was added and the transfection mixture (1 ml per well) was added to the cells. After 4 h at 37° C., a growth medium with 20% FBS (1 ml per well) was added. The cells were treated at 37° C. with compound A (10^−12−10^−5 M) or DMSO for 24 h before stimulation with TNF-α (50 ng/ml) for 6 h.
as §2, §3

T1 sequence (O14920 whole entry): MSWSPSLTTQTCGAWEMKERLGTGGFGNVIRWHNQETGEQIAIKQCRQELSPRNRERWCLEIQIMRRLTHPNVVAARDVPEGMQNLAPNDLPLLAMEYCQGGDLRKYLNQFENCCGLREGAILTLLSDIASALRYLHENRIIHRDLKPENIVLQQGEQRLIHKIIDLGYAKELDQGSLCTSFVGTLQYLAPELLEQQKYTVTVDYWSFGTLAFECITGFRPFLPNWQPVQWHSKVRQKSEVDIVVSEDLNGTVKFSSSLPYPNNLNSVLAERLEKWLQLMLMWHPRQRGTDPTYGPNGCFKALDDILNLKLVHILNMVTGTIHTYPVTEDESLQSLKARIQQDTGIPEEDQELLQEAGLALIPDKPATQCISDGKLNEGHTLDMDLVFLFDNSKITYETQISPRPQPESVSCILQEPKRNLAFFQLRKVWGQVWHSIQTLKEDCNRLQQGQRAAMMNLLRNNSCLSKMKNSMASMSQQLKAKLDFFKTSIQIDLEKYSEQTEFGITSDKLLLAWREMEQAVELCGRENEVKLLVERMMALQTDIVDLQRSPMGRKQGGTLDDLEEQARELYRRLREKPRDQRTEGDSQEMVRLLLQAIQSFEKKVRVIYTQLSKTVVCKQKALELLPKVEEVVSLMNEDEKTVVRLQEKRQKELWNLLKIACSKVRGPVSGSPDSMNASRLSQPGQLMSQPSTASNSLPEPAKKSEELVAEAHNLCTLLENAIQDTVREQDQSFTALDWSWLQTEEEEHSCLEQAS
T1 sequence (O15111 whole entry partner): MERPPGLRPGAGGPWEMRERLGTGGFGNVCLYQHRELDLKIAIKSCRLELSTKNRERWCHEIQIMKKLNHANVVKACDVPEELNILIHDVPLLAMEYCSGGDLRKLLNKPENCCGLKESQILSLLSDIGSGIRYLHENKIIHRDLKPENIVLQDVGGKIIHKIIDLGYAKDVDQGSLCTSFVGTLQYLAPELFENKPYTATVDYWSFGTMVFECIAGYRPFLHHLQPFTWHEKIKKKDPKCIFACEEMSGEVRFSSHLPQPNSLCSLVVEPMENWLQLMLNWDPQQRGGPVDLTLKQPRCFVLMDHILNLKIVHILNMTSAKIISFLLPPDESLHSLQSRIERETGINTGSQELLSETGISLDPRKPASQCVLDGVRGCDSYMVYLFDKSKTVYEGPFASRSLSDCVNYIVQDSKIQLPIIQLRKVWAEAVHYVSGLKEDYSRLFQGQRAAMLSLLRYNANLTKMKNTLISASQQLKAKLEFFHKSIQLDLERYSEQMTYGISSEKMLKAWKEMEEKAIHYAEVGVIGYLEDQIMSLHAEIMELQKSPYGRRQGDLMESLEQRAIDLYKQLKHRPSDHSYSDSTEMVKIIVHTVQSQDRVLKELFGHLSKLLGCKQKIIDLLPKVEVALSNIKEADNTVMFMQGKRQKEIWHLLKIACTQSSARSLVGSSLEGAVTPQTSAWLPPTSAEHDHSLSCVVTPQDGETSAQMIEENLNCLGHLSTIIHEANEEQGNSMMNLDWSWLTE
T1 sequence (Q9Y6K9 whole entry partner): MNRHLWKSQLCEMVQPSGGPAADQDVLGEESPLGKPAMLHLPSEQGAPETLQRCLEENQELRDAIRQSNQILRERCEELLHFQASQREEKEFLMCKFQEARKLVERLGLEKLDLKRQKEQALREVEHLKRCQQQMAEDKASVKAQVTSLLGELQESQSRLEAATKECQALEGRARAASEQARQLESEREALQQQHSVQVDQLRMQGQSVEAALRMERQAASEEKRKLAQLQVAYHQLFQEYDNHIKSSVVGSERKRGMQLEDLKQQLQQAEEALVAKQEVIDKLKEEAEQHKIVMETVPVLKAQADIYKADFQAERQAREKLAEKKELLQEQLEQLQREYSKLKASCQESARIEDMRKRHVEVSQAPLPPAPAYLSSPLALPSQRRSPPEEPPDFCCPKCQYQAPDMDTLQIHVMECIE

Regarding `COc1ccc(NC(=NC#N)NCCCCCCOc2ccc(Cl)cc2)cn1` [compound C], the IC50 on IKK (read-out: IKK activity in vitro (IC50 nM)) came out at 22 ± 2.4 nM; with NYH SCLC cells, 567 ± 127 nM.

As to `CCOC(=O)c1cccc(NC(=NC#N)NCCCCCCOc2ccc(Cl)cc2)c1` [compound E], the IC50 on IKK (cell prints (M), head nM, read-out: IKK activity in vitro (IC50)) was over 10000 nM; in the test with NYH SCLC cells, 597 ± 42 nM. In addition, the “NYH tumor growth in vivo (T/C in %)” value in the test on NYH Xenografts is reported as −17.1%.

Turning to TNF-α, the “NF-κB activity increase compared to the control” value is recorded as “approximately 12 fold” with NF-κB [1] and about 46 fold in the test on NF-κB [2]. For the same compound, the “effect on the NF-κB activity” value in the test with NF-κB [3] is “only a small effect”.
